Results published in ChEMBL document CHEMBL5247622, “Structural optimization of Imidazo[1, 2-a]pyridine derivatives for the treatment of gastric cancer via STAT3 signaling pathway” (Eur J Med Chem, 2022).
Active and inactive are the calls of the source. The rule behind the calls is not given here.

Assays:
AGS [1] = experiment: Antiproliferative activity against human AGS cells assessed as reduction in cell viability incubated for 72 hrs by CCK-8 assay; format: functional, cell-based
MGC-803 [2] = experiment: Antiproliferative activity against human MGC-803 cells assessed as reduction in cell viability incubated for 72 hrs by CCK-8 assay; format: functional, cell-based; settings: MGC-803, 72 h
[3] = Metabolic stability in human liver microsomes assessed as half life; format: ADME, Microsome
[4] = biological target: Signal transducer and activator of transcription 3 (Homo sapiens) (UniProt P40763); experiment: Inhibition of STAT3 (unknown origin) transcriptional signaling transfected in HEK293T cells at 3 uM incubated for 24 hrs by firefly luciferase gene reporter assay; format: cell-based
Signal transducer and activator of transcription 3 (Homo sapiens), sequence (P40763 whole entry): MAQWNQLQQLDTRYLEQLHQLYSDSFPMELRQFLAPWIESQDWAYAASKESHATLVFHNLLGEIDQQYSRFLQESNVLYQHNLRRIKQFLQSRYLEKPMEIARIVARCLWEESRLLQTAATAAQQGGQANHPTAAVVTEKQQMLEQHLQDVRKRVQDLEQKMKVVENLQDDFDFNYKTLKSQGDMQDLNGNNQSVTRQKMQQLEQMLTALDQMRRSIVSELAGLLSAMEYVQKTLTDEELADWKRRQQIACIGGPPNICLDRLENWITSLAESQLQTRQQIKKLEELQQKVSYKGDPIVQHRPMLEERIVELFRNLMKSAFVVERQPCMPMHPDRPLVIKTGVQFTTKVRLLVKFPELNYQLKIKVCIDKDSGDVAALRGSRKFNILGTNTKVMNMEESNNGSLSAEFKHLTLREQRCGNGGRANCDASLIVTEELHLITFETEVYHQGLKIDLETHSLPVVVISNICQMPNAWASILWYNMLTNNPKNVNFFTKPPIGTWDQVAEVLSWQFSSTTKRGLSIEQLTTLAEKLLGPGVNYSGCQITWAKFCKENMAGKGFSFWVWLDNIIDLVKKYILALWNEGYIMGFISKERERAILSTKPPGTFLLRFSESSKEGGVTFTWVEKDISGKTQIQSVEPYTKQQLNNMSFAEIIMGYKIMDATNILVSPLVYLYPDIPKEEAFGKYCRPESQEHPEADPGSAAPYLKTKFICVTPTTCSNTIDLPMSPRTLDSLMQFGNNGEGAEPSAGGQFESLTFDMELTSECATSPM

[5] = biological target: Signal transducer and activator of transcription 3 (Homo sapiens) (UniProt P40763); experiment: Thermal stabilization of STAT3 in human AGS cells at 1 uM at 37 to 54 degreeC incubated for 1 hr by cellular thermal shift assay; format: cell-based
AGS [6] = experiment: Inhibition of colony formation in human AGS cells at 0.3 to 3 uM incubated for 10 to 15 days by crystal violet staining based assay; format: functional, cell-based; settings: dose 0.3-3 µM, time 10-15 day
MGC-803 [7] = experiment: Inhibition of colony formation in human MGC-803 cells at 0.3 to 3 uM incubated for 10 to 15 days by crystal violet staining based assay; format: functional, cell-based; settings: dose 0.3-3 µM, time 10-15 day
AGS [8] = experiment: Induction of apoptosis in human AGS cells assessed as viable cells at 0.3 uM incubated for 48 hrs by Annexin V-FITC/PI staining based flow cytometry method (reference value: 94.8 %); format: functional; settings: read-out: Activity
AGS [9] = experiment: Induction of apoptosis in human AGS cells assessed as viable cells at 1 uM incubated for 48 hrs by Annexin V-FITC/PI staining based flow cytometry method (reference value: 94.8 %); format: functional; settings: read-out: Activity
AGS [10] = experiment: Induction of apoptosis in human AGS cells assessed as viable cells at 3 uM incubated for 48 hrs by Annexin V-FITC/PI staining based flow cytometry method (reference value: 94.8 %); format: functional; settings: read-out: Activity
AGS [11] = experiment: Induction of apoptosis in human AGS cells assessed as early apoptotic cells at 0.3 uM incubated for 48 hrs by Annexin V-FITC/PI staining based flow cytometry method (reference value: 2.38 %); format: functional
AGS [12] = experiment: Induction of apoptosis in human AGS cells assessed as early apoptotic cells at 1 uM incubated for 48 hrs by Annexin V-FITC/PI staining based flow cytometry method (reference value: 2.38 %); format: functional
AGS [13] = experiment: Induction of apoptosis in human AGS cells assessed as early apoptotic cells at 3 uM incubated for 48 hrs by Annexin V-FITC/PI staining based flow cytometry method (reference value: 2.38 %); format: functional
AGS [14] = experiment: Induction of apoptosis in human AGS cells assessed as late apoptotic cells at 0.3 uM incubated for 48 hrs by Annexin V-FITC/PI staining based flow cytometry method (reference value: 2.46 %); format: functional
AGS [15] = experiment: Induction of apoptosis in human AGS cells assessed as late apoptotic cells at 1 uM incubated for 48 hrs by Annexin V-FITC/PI staining based flow cytometry method (reference value: 2.46 %); format: functional
AGS [16] = experiment: Induction of apoptosis in human AGS cells assessed as late apoptotic cells at 3 uM incubated for 48 hrs by Annexin V-FITC/PI staining based flow cytometry method (reference value: 2.46 %); format: functional
AGS [17] = experiment: Induction of apoptosis in human AGS cells assessed as necrotic cells at 0.3 uM incubated for 48 hrs by Annexin V-FITC/PI staining based flow cytometry method (reference value: 0.32 %); format: functional
AGS [18] = experiment: Induction of apoptosis in human AGS cells assessed as necrotic cells at 1 uM incubated for 48 hrs by Annexin V-FITC/PI staining based flow cytometry method (reference value: 0.32 %); format: functional
AGS [19] = experiment: Induction of apoptosis in human AGS cells assessed as necrotic cells at 3 uM incubated for 48 hrs by Annexin V-FITC/PI staining based flow cytometry method (reference value: 0.32 %); format: functional
MGC-803 [20] = experiment: Antitumor activity against human MGC-803 cells xenografted in BALB/c mouse assessed as inhibition of tumor volume at 15 mg/kg,ip administrated for 21 consecutive days; format: functional, organism-based
MGC-803 [21] = experiment: Antitumor activity against human MGC-803 cells xenografted in BALB/c mouse assessed as inhibition of tumor weight at 15 mg/kg,ip administrated for 21 consecutive days; format: functional, organism-based
MGC-803 [22] = experiment: Antitumor activity against human MGC-803 cells xenografted in BALB/c mouse assessed as tumor growth inhibition at 15 mg/kg,ip administrated for 21 consecutive days relative to control; format: functional; settings: read-out: TGI

| IC50 (AGS [1]) [nM] | IC50 (MGC-803 [2]) [nM] | half-life [3] [min] | inhibition [4] | SMILES | other results |
| --- | --- | --- | --- | --- | --- |
| 2100 | 2720 | 50.1 | Active | COc1ccn2c(-c3ccc(NC(=O)c4ccc([N+](=O)[O-])o4)c(C)c3C(F)(F)F)cnc2c1 |  |
| 2130 | 3040 |  |  | O=C(Nc1ccc(-c2cnc3cc(N4CCS(=O)(=O)CC4)ccn23)cc1)c1ccc([N+](=O)[O-])o1 |  |
| 2700 | 3580 |  |  | CN1CCCN(c2ccn3c(-c4ccc(NC(=O)c5ccc([N+](=O)[O-])o5)cc4)cnc3c2)CC1 |  |
| 430 | 1380 | 39.9 | Active | COc1ccn2c(-c3ccc(NC(=O)c4ccc([N+](=O)[O-])o4)c(C)c3)cnc2c1 |  |
| 790 | 1100 |  |  | O=C(Nc1ccc(-c2cnc3cc(C4=CCN(C5COC5)CC4)ccn23)cc1)c1ccc([N+](=O)[O-])o1 |  |
| > 20000 | > 20000 |  |  | COc1ccn2c(-c3ccc(NC(=O)c4ccc([N+](=O)[O-])o4)cc3OC)cnc2c1 |  |
| 720 | 860 | 28.3 | Active | COc1ccn2c(-c3ccc(NC(=O)c4ccc([N+](=O)[O-])o4)cc3)cnc2c1 |  |
| 710 | 2910 | 24.2 | Active | COc1ccn2c(-c3ccc(NC(=O)c4ccc([N+](=O)[O-])o4)c(C(F)(F)F)c3)cnc2c1 |  |
| 2220 | 7410 |  |  | O=C(Nc1ccc(-c2cnc3cc(N4CCOCC4)ccn23)cc1)c1ccc([N+](=O)[O-])o1 |  |
| 3880 | 7520 |  |  | COc1ccn2c(-c3ccc(NC(=O)c4ccc([N+](=O)[O-])o4)c(OC)c3)cnc2c1 |  |
| 560 | 750 |  |  | O=C(Nc1ccc(-c2cnc3cc(Br)ccn23)cc1)c1ccc([N+](=O)[O-])o1 |  |
| 700 | 1080 | 25.7 | Active | COc1ccn2c(-c3ccc(NC(=O)c4ccc([N+](=O)[O-])o4)cc3F)cnc2c1 |  |
| > 20000 | > 20000 |  |  | COc1ccn2c(-c3ccc(NC(=O)c4ccc([N+](=O)[O-])o4)nc3)cnc2c1 |  |
| 640 | 1030 | 43 | Active | COc1ccn2c(-c3ccc(NC(=O)c4ccc([N+](=O)[O-])o4)cc3C)cnc2c1 |  |
| 2340 | 1580 |  |  | CN1CCN(c2ccn3c(-c4ccc(NC(=O)c5ccc([N+](=O)[O-])o5)cc4)cnc3c2)CC1 |  |
| 1920 | 1650 |  |  | O=C(Nc1ccc(-c2cnc3cc(N4CCN(C5CC5)CC4)ccn23)cc1)c1ccc([N+](=O)[O-])o1 |  |
| 730 | 1830 | 36.7 | Active | Cc1cc(-c2cnc3ccccn23)ccc1NC(=O)c1ccc([N+](=O)[O-])o1 |  |
| 1700 | 4620 |  |  | O=C(Nc1ccc(-c2cnc3cc(Cl)ccn23)cc1)c1ccc([N+](=O)[O-])o1 |  |
| 410 | 940 | 13.5 | Active | CC(=O)N1CC=C(c2ccn3c(-c4ccc(NC(=O)c5ccc([N+](=O)[O-])o5)cc4)cnc3c2)CC1 |  |
| 1530 | 3100 |  |  | CC1(O)CCN(c2ccn3c(-c4ccc(NC(=O)c5ccc([N+](=O)[O-])o5)cc4)cnc3c2)CC1 |  |
| 360 | 590 | 24.7 | Active | O=C(Nc1ccc(-c2cnc3ccccn23)cc1)c1ccc([N+](=O)[O-])o1 |  |
| > 5000 | > 5000 |  |  | O=C(Nc1ccc(-c2cnc3cc(N4CCC4)ccn23)cc1)c1ccc([N+](=O)[O-])o1 |  |
| 1240 | 1150 |  |  | O=C(Nc1ccc(-c2cnc3cc(N4CCCC4)ccn23)cc1)c1ccc([N+](=O)[O-])o1 |  |

| SMILES | IC50 (AGS [1]) [nM] | IC50 (MGC-803 [2]) [nM] | half-life [3] [min] | inhibition [4] | other results |
| --- | --- | --- | --- | --- | --- |
| O=C(Cc1c(-c2ccccc2)nc2ccccn12)Nc1ccc2c(c1)S(=O)(=O)C=C2 | 1550 |  | 24.2 | Active | Activity [5]: Active; inhibition (AGS [6]): Dose-Dependent Effect; inhibition (MGC-803 [7]): Dose-Dependent Effect; viability at 0.3 µM (AGS [8]): 94.1%; viability at 1 µM (AGS [9]): 91.8%; viability at 3 µM (AGS [10]): 90.2%; Activity (AGS [11]): 2.59%; Activity (AGS [12]): 3.19%; Activity (AGS [13]): 7.98%; Activity (AGS [14]): 3.01%; Activity (AGS [15]): 4.84%; Activity (AGS [16]): 1.3%; Activity (AGS [17]): 0.29%; Activity (AGS [18]): 0.19%; Activity (AGS [19]): 0.5%; inhibition (MGC-803 [20]): Active; inhibition (MGC-803 [21]): Active; inhibition in vivo at 15 mg/kg (MGC-803 [22]): 54.5% |
| O=C(Nc1ccc(-c2cnc3cc(C4=CCNCC4)ccn23)cc1)c1ccc([N+](=O)[O-])o1 | 1280 | 790 | 12.2 | Active |  |
